Tests used:
Assay type in all cases: in vivo
[1] = test system: Musca domestica strain WHO-N; experiment: Musca domestica test (MUSCDO surface treatment & contact assay); settings: surface concentration 20 mg/m^2, glazed tile, 30 minutes exposure, 24 hours after contact, read-out: efficacy (mortality)
Protocol: Musca domestica Test (MUSCDO Surface Treatment & Contact Assay)
Solvent: Aceton+2000 ppm rapeseed oil methyl ester (RME)
In order to produce a sufficient, active ingredient containing solution it is necessary to solve the test compound in the solvent-mix (acetone at 2 mg/mL/RME 2000 ppm). This solution is pipetted onto a glazed tile and after evaporation of the acetone, adult flies of the species Musca domestica strain WHO—N are placed onto the dried surface. The exposure time is 30 minutes.
Mortality in percent (%) is determined 24 hours after contact of the insects to the treated surface. 100% mortality means that all tested insects are dead, whereas 0% means that no insect died.

[2] = test system: Diabrotica balteata; experiment: Diabrotica balteata spray test; settings: 168 h, 500 g/ha (=160 μg/well), wheat seeds, after 7 days, read-out: activity (efficacy, seedlings grown)
Method in brief: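 Germinated wheat seedlings (5 per well, on agar) sprayed with compound in acetone/DMF with emulsifier-containing water, then infested with 10–20 Diabrotica balteata larvae. Efficacy (%) scored after 7 days from seedling growth: 100% = growth as untreated uninfested control, 0% = no seedlings grown.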

[3] = test system: Ctenocephalides felis; experiment: Ctenocephalides felis oral test (CTECFE); settings: 48 h, 100 ppm in cattle blood, after 2 days
Method in brief: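 About 20 adult unfed fleas fed through parafilm on cattle blood held at 37° C and dosed with compound from a DMSO concentrate; flea chamber at room temperature. Percent mortality scored after 2 days.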

[4] = test system: Aedes aegypti strain MONHEIM; experiment: Aedes aegypti test (AEDSAE surface treatment & contact assay); settings: 30 minutes exposure, 24 hours after contact, read-out: efficacy (mortality)
[5] = test system: Spodoptera frugiperda; experiment: Spodoptera frugiperda spray test; settings: in Zea mays, 168 h, read-out: activity (mortality)
Method in brief: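 Compound in acetone/DMF, diluted in water with 1000 ppm alkylarylpolyglycol ether emulsifier, sprayed on maize leaf sections. Dried leaves infested with fall armyworm larvae; % mortality after 7 days (100% = all killed, 0% = none).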

[6] = test system: Ctenocephalides felis; experiment: Ctenocephalides felis in-vitro contact test, adult cat flea; settings: 5 μg/cm^2 (=500 g/ha), after 48 hours, read-out: activity (efficacy, fleas dead or moribund)
Method in brief: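 Acetone solutions coated onto inner walls of glass tubes; 900 ppm gives 5 μg/cm^2. After drying, 5-10 adult Ctenocephalides felis per tube held 48 h at room temperature. Fleas then placed on 45-50° C. plate for up to 5 min; those unable to climb away scored dead or moribund, efficacy as % dead/moribund.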

[7] = test system: Myzus persicae; experiment: Myzus persicae oral test; settings: 120 h, after 5 days
Protocol: Solvent: 100 parts by weight acetone
Afterwards the plates are sealed with parafilm through which a mixed population of the green peach aphid (Myzus persicae) can suck on the compound preparation.
After 5 days mortality in % is determined. 100% means all aphids have been killed and 0% means none of the aphids have been killed.

[8] = test system: Rhipicephalus microplus (strain Parkhurst, resistant against synthetic pyrethroids); experiment: Rhipicephalus microplus in-vitro contact test, larval cattle tick (BOOPMI Contact); settings: 5 μg/cm^2 (=500 g/ha), after 48 hours, read-out: activity (efficacy, larvae dead or moribund)
Method in brief: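 Glass tubes coated with compound in acetone (900 ppm giving 5 μg/cm²), dried, then loaded with 20-50 pyrethroid-resistant Parkhurst larvae and held at 27 °C, 85% RH. After 48 h negative geotaxis is scored; efficacy in % dead or moribund larvae.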

SMILES: C[C@H](Nc1nc2cc(C(F)(F)F)c(Cl)cc2o1)c1ncnn1-c1ncccn1 [Example I-001, 6-chloro-N-{(1S)-1-[1-(pyrimidin-2-yl)-1H-1,2,4-triazol-5-yl]ethyl}-5-(trifluoromethyl)-1,3-benzoxazol-2-amine]
- mortality at 20 mg/m2 [1]: 90 to 100%
- pest or weed control at 160 µg/disc, 500 g/ha [2]: 100%
- mortality at 100 ppm [3]: 100%
- mortality at 4 mg/m2 ([4]; surface concentration 4 mg/m^2, glazed tile): 85 to 100%
- mortality at 20 mg/m2 ([4]; surface concentration 20 mg/m^2, glazed tile): 90 to 100%
- mortality at 100 g/ha [5]: 100%
- mortality at 500 g/ha [5]: 100%
- pest or weed control at 5 µg/cm2, 5 µg/cm2 [6]: 100%
- mortality at 4 ppm [7]: 100%
- pest or weed control at 5 µg/cm2 [8]: 100%

— patent publication US12384769B2, “Heteroaryl-substituted aminoalkyl azole compounds as pesticides” (Elanco Animal Health GmbH, priority 2019, dated 2025)
